Legend:
Experiment in all cases: relative viability (nuclei count vs DMSO), 5 days (fraction); higher = more cells survive
[1] = compound: COC1=CC=C(C=C1)CN2C=CC3=C2C=C(C=C3)C(=O)NO + C[C@@H](Oc1cc(-c2cnn(C3CCNCC3)c2)cnc1N)c1c(Cl)ccc(F)c1Cl [Crizotinib] (partner 1 µM)
In short: (§1)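 For relative viability, nuclei counts in treated wells were divided by those in vehicle wells. Lung cancer cell lines had been pin-tool dosed in 1536-well plates the day after seeding and cultured for 5 days, then fixed and stained in one step (final 0.05% Triton X-100, 1% formaldehyde, 1 ug/ml Hoechst) and imaged at 4×. Doses were one drug alone or a fixed anchor-drug dose plus five library-drug doses (not always all listed) in √10 steps, and values are duplicate-plate medians.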

Veliparib + Dasatinib = compound: C[C@]1(c2nc3c(C(N)=O)cccc3[nH]2)CCCN1 [Veliparib] + Cc1nc(Nc2ncc(C(=O)Nc3c(C)cccc3Cl)s2)cc(N2CCN(CCO)CC2)n1 [Dasatinib] (partner 0.075 µM)
In short: as §1

Veliparib + Luminespib = compound: C[C@]1(c2nc3c(C(N)=O)cccc3[nH]2)CCCN1 [Veliparib] + CCNC(=O)c1noc(-c2cc(C(C)C)c(O)cc2O)c1-c1ccc(CN2CCOCC2)cc1 [Luminespib] (partner 0.01 µM)
In short: as §1

Veliparib + Navitoclax = compound: C[C@]1(c2nc3c(C(N)=O)cccc3[nH]2)CCCN1 [Veliparib] + CC1(C)CCC(c2ccc(Cl)cc2)=C(CN2CCN(c3ccc(C(=O)NS(=O)(=O)c4ccc(N[C@H](CCN5CCOCC5)CSc5ccccc5)c(S(=O)(=O)C(F)(F)F)c4)cc3)CC2)C1 [Navitoclax] (partner 0.5 µM)
In short: as §1

Cell Line | relative viability ([1]; first compound 0.08 µM) | relative viability ([1]; first compound 0.253 µM) | relative viability ([1]; first compound 0.8 µM) | relative viability ([1]; first compound 2.53 µM) | relative viability ([1]; first compound 8 µM) | relative viability (Veliparib + Dasatinib; first compound 0.02 µM) | relative viability (Veliparib + Dasatinib; first compound 0.06325 µM) | relative viability (Veliparib + Dasatinib; first compound 0.2 µM) | relative viability (Veliparib + Dasatinib; first compound 0.6325 µM) | relative viability (Veliparib + Dasatinib; first compound 2 µM) | relative viability (Veliparib + Luminespib; first compound 0.02 µM) | relative viability (Veliparib + Luminespib; first compound 0.06325 µM) | relative viability (Veliparib + Luminespib; first compound 0.2 µM) | relative viability (Veliparib + Luminespib; first compound 0.6325 µM) | relative viability (Veliparib + Luminespib; first compound 2 µM) | relative viability (Veliparib + Navitoclax; first compound 0.02 µM) | relative viability (Veliparib + Navitoclax; first compound 0.06325 µM) | relative viability (Veliparib + Navitoclax; first compound 0.2 µM) | relative viability (Veliparib + Navitoclax; first compound 0.6325 µM) | relative viability (Veliparib + Navitoclax; first compound 2 µM)
NCI-H1755 | 0.789 | 0.852 | 0.858 | 0.928 | 0.879 | 0.392 | 0.37 | 0.401 | 0.375 | 0.413 | 0.551 | 0.553 | 0.41 | 0.357 | 0.36 | 1.02 | 0.946 | 0.939 | 0.925 | 0.967
NCI-H1792 | 0.969 | 0.905 | 1.01 | 0.918 | 0.697 | 0.79 | 0.79 | 0.822 | 0.707 | 0.717 | 0.509 | 0.361 | 0.508 | 0.429 | 0.331 | 0.589 | 0.5 | 0.67 | 0.616 | 0.564
NCI-H1915 | 0.777 | 0.892 | 0.935 | 0.905 | 0.857 | 0.307 | 0.329 | 0.301 | 0.314 | 0.297 | 0.799 | 0.6 | 0.647 | 0.553 | 0.596 | 0.766 | 0.759 | 0.706 | 0.703 | 0.67
NCI-H1944 |  | 1.18 | 1.1 | 1.09 | 1.08 | 0.204 | 0.196 | 0.21 | 0.195 | 0.219 | 0.698 | 0.618 | 0.633 | 0.613 | 0.657 | 0.99 | 0.996 | 0.929 | 0.907 | 0.899
NCI-H1975 | 0.915 | 1.04 | 0.955 | 0.948 | 0.871 | 0.336 | 0.37 | 0.331 | 0.368 | 0.372 | 0.118 | 0.233 | 0.142 | 0.31 | 0.18 | 1.07 | 1.14 | 1.22 | 0.942 | 0.981
NCI-H1993 | 0.698 | 0.919 | 0.803 | 0.901 | 0.881 | 0.496 | 0.571 | 0.537 | 0.64 | 0.522 | 0.713 | 0.675 | 0.968 | 0.64 | 0.895 | 0.939 | 0.898 | 1.07 | 0.902 | 0.959
NCI-H2009 | 1.02 | 0.993 | 0.995 | 0.967 | 1.06 | 0.332 | 0.319 | 0.331 | 0.29 | 0.292 | 1.03 | 0.96 | 1.05 | 1.05 | 1.13 | 1.22 | 1.07 | 1.2 | 1.1 | 1.31
NCI-H2023 | 0.625 | 0.586 | 0.728 | 0.652 | 0.59 | 0.511 | 0.596 | 0.532 | 0.547 | 0.625 | 0.746 | 0.738 | 0.696 | 0.73 | 0.73 | 1.04 | 0.948 | 0.922 | 0.926 | 0.943
NCI-H2085 | 0.804 | 0.944 | 0.853 | 0.928 | 0.926 | 0.239 | 0.213 | 0.262 | 0.252 | 0.246 |  | 0.438 | 0.426 | 0.273 | 0.447 | 1.13 | 0.984 | 1.15 | 0.932 | 1.11
NCI-H2087 | 0.819 | 0.842 | 0.993 | 0.913 | 0.767 | 0.738 | 0.731 | 0.886 | 0.788 | 0.942 | 0.167 | 0.188 | 0.152 | 0.14 | 0.145 | 0.883 | 0.821 | 0.849 | 0.863 | 0.952
NCI-H2126 | 1.02 | 1.08 | 1.04 | 1.03 | 1.06 | 0.618 | 0.539 | 0.612 | 0.658 | 0.668 | 0.875 | 0.908 | 0.839 | 0.901 | 0.95 | 0.928 | 0.803 | 0.861 | 0.749 | 0.817
NCI-H2170 | 0.938 | 1.19 | 1.17 | 1.26 | 1.12 | 0.549 | 0.629 | 0.587 | 0.562 | 0.592 | 0.681 | 0.865 | 0.719 | 0.732 | 0.6 | 0.544 | 0.531 | 0.597 | 0.618 | 0.606
NCI-H2228 | 0.45 | 0.549 | 0.535 | 0.492 | 0.423 | 0.51 | 0.509 | 0.508 | 0.357 | 0.467 | 0.141 | 0.0988 | 0.145 | 0.123 | 0.154 | 1.13 | 0.953 | 1.01 | 0.688 | 1.05
NCI-H2347 | 0.666 | 0.7 | 0.856 | 0.672 | 0.655 | 0.327 | 0.266 | 0.275 | 0.336 | 0.315 | 0.484 | 0.54 | 0.649 | 0.547 | 0.427 | 0.794 | 0.775 | 0.724 | 0.695 | 0.729
NCI-H2405 | 0.649 | 0.865 | 0.87 | 0.925 | 0.819 | 0.225 | 0.171 | 0.225 | 0.244 | 0.222 | 0.695 | 0.609 | 0.771 | 0.666 | 0.711 |  | 0.734 | 0.847 | 0.833 | 0.69
NCI-H3122 | 0.266 | 0.275 | 0.292 | 0.317 | 0.284 | 0.674 | 0.792 | 0.84 | 0.766 | 0.572 | 0.0959 | 0.0908 | 0.097 | 0.0912 | 0.0755 | 0.982 | 0.998 | 0.998 | 1 | 1.01
